In the assay the test system is large hemispheric infarction (LHI) patients at high risk for cerebral edema. The assay can be described thus: CHARM trial: intravenous glibenclamide in large hemispheric infarction, 90-day mRS shift analysis. Format: in vivo, human. The following applies: for common odds ratio (cOR), 90-day mRS: versus placebo; for lesion volume at which cOR crosses the "no effect" point (cOR=1.0): 90-day mRS, mRS 5 and 6 combined. The text has this:
The CHARM trial evaluated the safety and efficacy of intravenous glibenclamide as a treatment for large hemispheric infarction (LHI) patients at high risk for cerebral edema.
Patients meeting the following criteria were included: • A clinical diagnosis of acute ischemic stroke in the middle cerebral artery (MCA) territory. • A large hemispheric infarction defined as; lesion volume of 80 to 300 centimeters cubed (cm^3) on magnetic resonance imaging (MRI) diffusion-weighted imaging (DWI), or computed tomography perfusion (CTP), or an Alberta Stroke Program Early CT Score (ASPECTS) of 1 to 5 with involvement of at least 2 defined cortical regions. • Screening National Institutes of Health Stroke Scale (NIHSS) >=10. • At the time of randomization, and in the Investigator's judgement, it must be feasible for study drug treatment infusion to be initiated no later than 10 hours after time of symptom onset, if known, or the time last known normal. • Participants who wake with stroke may be included if neurological and other exclusion criteria are satisfied. The time of stroke onset is to be taken as the midpoint between sleep onset (or last known to be normal) and time of waking. • For participants who receive thrombectomy, inclusion into the study must be based on post-thrombectomy MRI-DWI.
Patients meeting the following criteria were excluded: • Participant is likely to have supportive care withdrawn on the first day. • Commitment to decompressive craniectomy (DC) prior to enrollment. • Evidence of concurrent infarction in the contralateral hemisphere sufficiently serious so as to affect functional outcome. Pre-Specified Primary Endpoint • Modified Rankin Scale (mRS) score at 90 days analyzed as a shift analysis using a 5-category ordinal scale with 0/1 and 5/6 collapsed. The primary efficacy analysis was pre-specified to be conducted in participants 18-70 years of age (inclusive) who were randomized and receive study treatment (the modified intent-to-treat [mITT] population].
Five hundred thirty-five subjects were enrolled, with 268 treated with placebo and 267 treated with intravenous glyburide. The mITT population (the primary analysis population), those participants aged […] years who received any study drug, consisted of 431 subjects.
An interaction term between treatment arm and stroke volume was included in an ordinal logistic regression model with 90-day mRS as the dependent variable. Independent variables included age, sex, baseline NIHSS, world region, tissue plasminogen activator, and thrombectomy.

Take `COc1ccc(Cl)cc1C(=O)NCCc1ccc(S(=O)(=O)NC(=O)NC2CCCCC2)cc1` [glibenclamide]: the “common odds ratio (cOR), 90-day mRS” value (mITT subjects given glyburide in combination with thrombectomy (n=81), 95% CI 1.10-20.1, p=0.037) worked out at 4.69; the “common odds ratio (cOR), 90-day mRS” value (mITT subjects with CTP or DWI baseline volume, lesion volume less than 85 cm^3, ordinal logistic regression, mRS 0/1 and 5/6 collapsed) is recorded as “about 6”; the “common odds ratio (cOR), 90-day mRS” value (mITT, baseline stroke volume ≤120 cm^3 subgroup, 95% CI 1.07-5.01, p=0.034) is 2.31. In addition, the “lesion volume at which cOR crosses the "no effect" point (cOR=1.0)” value (mITT subjects with CTP or DWI baseline volume) was “about 140 cm^3” and the “lesion volume at which cOR crosses the "no effect" point (cOR=1.0)” value (mITT subjects with CTP or DWI baseline volume, listed as glyburide) was “approximately 140 cm^3”.

(Values after patent publication US12611416B2, “Methods of treating ischemic stroke at risk for cerebral or cerebellar edema” (REMEDY PHARMACEUTICALS, INC., priority 2024, dated 2026).)
